The values that follow come from article PMC6645248 (ACS Omega, 2018).

For assay [1], the target named is Cyt c (Equus caballus, UniProt P00004). In kind it is biochemical, equine. The note with it: for concentration at which an effect on the Cyt c-catalysed reaction starts: [Cyt c] = 15 μg/mL.
The target in assay [2] is T1, horseradish peroxidase (HRP) (Armoracia rusticana, UniProt P00433).
T1 sequence (P00433 31-338 limits assumed): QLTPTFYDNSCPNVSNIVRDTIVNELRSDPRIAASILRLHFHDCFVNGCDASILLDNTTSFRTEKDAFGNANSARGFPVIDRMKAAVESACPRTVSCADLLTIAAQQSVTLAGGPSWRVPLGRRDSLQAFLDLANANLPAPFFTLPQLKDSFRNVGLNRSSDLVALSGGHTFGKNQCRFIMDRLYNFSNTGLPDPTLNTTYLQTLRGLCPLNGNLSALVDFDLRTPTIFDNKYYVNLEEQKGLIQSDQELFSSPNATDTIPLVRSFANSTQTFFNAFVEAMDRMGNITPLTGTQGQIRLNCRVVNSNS
Nature of the assay: Peroxide-induced inhibition. The assay is classed as biochemical. The settings on record: [LH-] = 750 μM; [HRP] = 2 μg/mL; pH 9.

Assay [3] addresses T2, HRP (Armoracia rusticana, UniProt P00433).
T2 sequence (P00433 31-338 limits assumed): T1 sequence (P00433 31-338 limits assumed)
Description: Enhancement of the HRP-catalysed luminol reaction by aromatic hydrogen donors. In kind it is biochemical, horseradish. The settings on record: [H2O2] = 1.1 mM; [LH-] = 750 μM; pH 9.

The target in assay [4] is T2, HRP. The settings on record: [H2O2] of 17.6 mM; cited from earlier work.
Where [5] appears, read: [LH-] = 750 μM, [H2O2] = 1.1 mM, pH 9.

Cyt c, sequence (P00004 whole entry): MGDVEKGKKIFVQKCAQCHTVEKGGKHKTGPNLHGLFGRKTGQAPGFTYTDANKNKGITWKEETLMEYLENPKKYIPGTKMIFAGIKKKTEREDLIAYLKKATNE

Turning to `NC(=O)C1=CN([C@@H]2O[C@H](COP(=O)([O-])OP(=O)([O-])OC[C@H]3O[C@@H](n4cnc5c(N)ncnc54)[C@H](O)[C@@H]3O)[C@@H](O)[C@H]2O)C=CC1.[Na+].[Na+]` [NADH, Nicotinamide–adenine–dinucleotide disodium], the “concentration at which an effect on the Cyt c-catalysed reaction starts” value in assay [1] (setting [5]) came to 80 µM. The “kind of quenching of Cyt c-catalysed luminescence (kinetics)” value in assay [1] ([Cyt c] = 20 μg/mL, [LH-] = 750 μM, [H2O2] = 1.1 mM, pH 9) is reported as “permanent luminescence quenching”.
What is called IC50 is the midpoint of a concentration-inhibition curve. Regarding `N[C@@H](CCC(=O)N[C@@H](CS)C(=O)NCC(=O)O)C(=O)O` [GSH, glutathione], the “protection of HRP against high [H2O2] (shift of peroxide inhibition)” value in assay [2] is on record as “does not exert a protective effect on HRP”. In addition, the half-maximal inhibitory concentration (IC50) in assay [1] was 41 µM. The “concentration at which an effect on the Cyt c-catalysed reaction starts” value in assay [1] (setting [5]) was “about 10 μM”.
Take `Oc1ccc(I)cc1` [IP, iodophenol]: in assay [3], the “concentration for maximal enhancement of the HRP-catalysed reaction” value is given as “around 200 μM”. Further, the “concentration for maximal enhancement” value in assay [4] is 4 mM.
